Like-named read-outs stand apart in the source and are kept apart here.
Key:
Escherichia coli = assay: Antimicrobial activity enhancing action: MIC of novobiocin or erythromycin alone or in combined use with cyclodextrin derivative, Escherichia coli; format: cell-based
Method: The evaluation was performed by a procedure as follows. Specifically, before testing, each of the bacteria were incubated on a minimal salt medium combined with common bacteria-use dried broth or polypeptone and reached a logarithmic growth phase. […] Some of existing antimicrobial substances fail to exert their inherent antimicrobial activities, due to the bacterial membrane serving as a physical barrier. In these cases, the substances offer high minimum inhibitory concentrations (MICs) necessary for inhibiting the bacterial growth and are considered as having no antimicrobial (antibacterial) activity. In particular, this allows Gram-negative bacteria, which have not only a cytoplasmic membrane, but also a bacterial outer membrane, to have remarkable drug resistance. […] Next, the compound (cyclodextrin derivative) (a) represented by Chemical Formula (11) was evaluated for antimicrobial activity enhancing action through a test performed by a procedure similar to that in Example 3.

Pseudomonas aeruginosa = assay: Antimicrobial activity enhancing action: MIC of novobiocin or erythromycin alone or in combined use with cyclodextrin derivative, Pseudomonas aeruginosa; format: cell-based; details: cyclodextrin derivative 0 μg/mL (single use)
Method: The evaluation was performed by a procedure as follows. Specifically, before testing, each of the bacteria were incubated on a minimal salt medium combined with common bacteria-use dried broth or polypeptone and reached a logarithmic growth phase. […] The testing incubation was performed at an initial bacterial concentration of 1×10^4 cells per milliliter.
The test was performed using bacteria Escherichia coli and Pseudomonas aeruginosa.

SMILES | MIC (Escherichia coli; cyclodextrin derivative 0 μg/mL (single use), read-out: Minimum inhibitory concentration (MIC) of novobiocin) | Minimum inhibitory concentration (MIC) of novobiocin (Pseudomonas aeruginosa) | MIC (Pseudomonas aeruginosa; read-out: Minimum inhibitory concentration (MIC) of novobiocin) | MIC (Escherichia coli; read-out: Minimum inhibitory concentration (MIC) of erythromycin, cyclodextrin derivative 0 μg/mL (single use))
CO[C@@H]1[C@@H](OC(N)=O)[C@@H](O)[C@H](Oc2ccc3c(O)c(NC(=O)c4ccc(O)c(CC=C(C)C)c4)c(=O)oc3c2C)OC1(C)C [novobiocin] | 128 µg/mL | 2048 µg/mL | 2050 µg/mL | –
CC[C@H]1OC(=O)[C@H](C)[C@@H](O[C@H]2C[C@@](C)(OC)[C@@H](O)[C@H](C)O2)[C@H](C)[C@@H](O[C@@H]2O[C@H](C)C[C@H](N(C)C)[C@H]2O)[C@](C)(O)C[C@@H](C)C(=O)[C@H](C)[C@@H](O)[C@]1(C)O [erythromycin] | – | – | – | 64 µg/mL
